The results in this text go back to paper PMC6130562, “A phlorotannin constituent of Ecklonia cava alleviates postprandial hyperglycemia in diabetic mice” (Pharmaceutical Biology, 2017).

In assay [1] the target is T1, α-amylase (porcine pancreatic amylase) (Sus scrofa, UniProt P00690).
T1 construct: gene AMY2
T1 sequence (P00690 16-511): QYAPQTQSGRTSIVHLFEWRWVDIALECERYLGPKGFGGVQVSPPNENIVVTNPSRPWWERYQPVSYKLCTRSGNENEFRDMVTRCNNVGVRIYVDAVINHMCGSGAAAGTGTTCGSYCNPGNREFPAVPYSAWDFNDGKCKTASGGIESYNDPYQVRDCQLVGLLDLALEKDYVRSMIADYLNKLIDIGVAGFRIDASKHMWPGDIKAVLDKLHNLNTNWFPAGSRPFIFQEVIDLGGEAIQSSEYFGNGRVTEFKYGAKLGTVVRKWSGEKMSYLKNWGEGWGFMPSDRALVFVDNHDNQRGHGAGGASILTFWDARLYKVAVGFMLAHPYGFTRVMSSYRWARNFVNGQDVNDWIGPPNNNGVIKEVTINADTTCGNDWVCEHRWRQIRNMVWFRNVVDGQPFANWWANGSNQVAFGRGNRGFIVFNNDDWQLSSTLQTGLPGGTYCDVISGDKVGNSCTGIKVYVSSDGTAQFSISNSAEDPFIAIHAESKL
The assay is described as follows: chromogenic enzyme inhibition assay ([…] nm), commercial porcine pancreatic amylase. The class given is biochemical.

The target in assay [2] is α-glucosidase (yeast). As to the kind of experiment: chromogenic pNPG hydrolysis assay ([…] nm), commercial yeast enzyme. It is filed as biochemical.

Take `Oc1cc(O)cc(Oc2cc(O)c3c(c2-c2c(O)cc(O)c4c2Oc2c(O)cc(Oc5c(O)cc(O)cc5O)c(Oc5cc(O)cc(O)c5)c2O4)Oc2c(O)cc(O)c(Oc4cc(O)cc(O)c4)c2O3)c1` [2,7″-Phloroglucinol-6,6′-bieckol]: the 50% inhibitory concentration (IC50) – broadly, the concentration at which inhibition is half-maximal – in assay [1] turned out to be 6.94 µM; in assay [2], 23.4 µM.
